Read-outs that look alike come from different tables or passages of the source.
Columns and labels:
CETP [1] = biological target: T1, CETP (Homo sapiens, UniProt P11597); test: CETP fluorescence test; assay type: biochemical; details: CETP from human plasma, 37° C., 4 hours; read-out: IC50 (nM) Fluor. test
T1 construct: CETP is obtained in partially purified form from human plasma; from tissue; host or cells: human plasma
T1 sequence (P11597 18-493): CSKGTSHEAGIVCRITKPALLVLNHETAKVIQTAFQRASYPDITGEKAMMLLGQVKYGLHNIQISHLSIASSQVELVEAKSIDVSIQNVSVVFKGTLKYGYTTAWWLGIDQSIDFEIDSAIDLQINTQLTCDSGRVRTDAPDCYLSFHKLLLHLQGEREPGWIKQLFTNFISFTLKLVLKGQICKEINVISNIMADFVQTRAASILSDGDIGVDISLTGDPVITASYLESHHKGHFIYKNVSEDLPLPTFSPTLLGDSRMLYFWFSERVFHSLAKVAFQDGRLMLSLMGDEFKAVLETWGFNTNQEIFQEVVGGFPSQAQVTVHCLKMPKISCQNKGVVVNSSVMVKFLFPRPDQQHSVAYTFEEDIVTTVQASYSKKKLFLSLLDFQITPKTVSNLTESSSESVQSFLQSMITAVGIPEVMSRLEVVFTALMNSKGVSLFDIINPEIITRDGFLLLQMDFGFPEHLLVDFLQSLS
Method: (§1) CETP is obtained in partially purified form from human plasma by differential centrifugation and column chromatography and used for the test. To this end, human plasma is adjusted to a density of 1.21 g per ml using NaBr and centrifuged at 4° C. at 50000 rpm for 18 h. The bottom fraction (d>1.21 g/ml) is applied to a Sephadex® Phenyl-Sepharose 4B (Pharmacia) column, washed with 0.15 M NaCl/0.001 M tris HCl pH 7.4 and then eluted with dist. water. Die CETP-active fractions are pooled, dialysed against 50 mM Na acetate pH 4.5 and applied to a CM-Sepharose® (Pharmacia) column. The mixture is then eluted using a linear gradient (0-1 M NaCl). The pooled CETP fractions are dialysed against 10 mM TrisHCl pH 7.4 and then further purified by chromatography on a Mono Q® column (Pharmacia).
Measurement of the CETP-catalysed transfer of a fluorescent cholesterol ester between liposomes—modified according to the procedure of Bisgaier et al., J. Lipid Res. 34, 1625 (1993).
For the production of the donor liposomes, 1 mg of cholesteryl 4,4-difluoro-5,7-dimethyl-4-bora-3a,4a-diaza-s-indacene-3-dodecanoate (cholesteryl BODIPY® FL C12, Molecular Probes) is dissolved in 600 μl of dioxane with 5.35 mg of triolein and 6.67 mg of phosphatidylcholine with gentle warming in an ultrasonic bath and this solution is added very slowly with ultrasonication to 63 ml of 50 mM tris/HCl, 150 mM NaCl, 2 mM EDTA buffer pH 7.3 at RT.
The suspension is then ultrasonicated under an N2 atmosphere for 30 minutes in the Braukson ultrasonic bath at about 50 watts, the temperature being kept at about 20° C.
The acceptor liposomes are obtained analogously from 86 mg of cholesteryl oleate, 20 mg of triolein and 100 mg of phosphatidylcholine dissolved in 1.2 ml of dioxane and 114 ml of above buffer by ultrasonication at 50 watts (20° C.) for 30 minutes.
For testing, a test mix consisting of 1 part of above buffer, 1 part of donor liposomes and 2 parts of acceptor liposomes is used.
80 μl of test mix are treated with 1-3 μg of enriched CETP fraction, obtained from human plasma by means of hydrophobic chromatography, and 2 μl of the substance to be investigated in DMSO and incubated at 37° C. for 4 hours.
The change in the fluorescence at 485/535 nm is a measure of the CE transfer; the inhibition of the transfer in comparison to the control batch without substance is determined.

CETP [2] = biological target: T1, CETP; test: CETP-SPA test; assay type: biochemical; details: 3H-cholesterol ester transfer from HDL to biotin-LDL, 37° C., 18 h
Method: as §1
50 ml of fresh human EDTA plasma are adjusted to a density of 1.12 using NaBr and centrifuged at 4° C. in a Ty 65 rotor at 50000 rpm for 18 h. The upper phase is used for the obtainment of cold LDL. The lower phase is dialysed against 3×41 of PDB buffer (10 mM tris/HCl pH 7.4, […], 1 mM EDTA, 0.02% NaN3). Per 10 ml of retentate volume, 20 μl of 3H-cholesterol (Dupont NET-725; 1 μC/μl dissolved in ethanol!) is then added and the mixture is incubated at 37° C. under N2 for 72 h.
The batch is then adjusted to the density 1.21 using NaBr and centrifuged at 20° C. in a Ty 65 rotor at 50000 rpm for 18 h. The upper phase is recovered and the lipoprotein fractions are purified by gradient centrifugation. To this end, the isolated, labelled lipoprotein fraction is adjusted to a density of 1.26 using NaBr. 4 ml each of this solution are covered in centrifuged tubes (SW 40 rotor) with a layer of 4 ml of a solution of density 1.21 and 4.5 ml of a solution of 1.063 (density solutions of PDB buffer and NaBr) and then centrifuged for 24 h at 38000 rpm and 20° C. in the SW 40 rotor. The intermediate layer lying between the density 1.063 and 1.21, containing the labelled HDL, is dialysed against 3×100 volumes of PDB buffer at 4° C.
The retentate contains radiolabelled ^3H-CE-HDL, which, adjusted to about 5×10^6 cmp per ml, is used for the test.
For testing of the CETP activity, the transfer of ^3H-cholesterol ester from human HD lipoproteins to biotinylated LD lipoproteins is measured.
The reaction is ended by addition of streptavidin-SPA®beads (Amersham) and the transferred radioactivity is determined directly in a liquid scintillation counter.
In the test batch, 10 μl of HDL-^3H-cholesterol ester (˜50000 cpm) are incubated at 37° C. for 18 h with 10 μl of biotin-LDL (Amersham) in 50 mM Hepes/0.15 M NaCl/0.1% bovine serum albumin/0.05% NaN3 pH 7.4 containing 10 μl of CETP (1 mg/ml) and 3 μl of solution of the substance to be tested (dissolved in 10% DMSO/1% RSA). 200 μl of the SPA-streptavidin bead solution (TRKQ 7005) are then added, incubated further with shaking for 1 h and then measured in a scintillation counter.
Corresponding incubations with 10 μl of buffer, 10 μl of CETP at 4° C. and 10 μl of CETP at 37° C. serve as controls.
The activity transferred in the control batches with CETP at 37° C. is rated as 100% transfer. The substance concentration at which this transfer is reduced to half is specified as the IC50 value.

[3] = biological target: T2, CETP activity in the serum (Homo sapiens, UniProt P11597); test: Ex vivo activities on transgenic hCETP mice (serum CETP activity after oral administration); details: mouse, cholesteryl ester transport in serum
T2 construct: determination of its basal CETP activity in the serum; from tissue; host or cells: serum of transgenic hCETP mice
T2 sequence (P11597 18-493): T1 sequence (P11597 18-493)
Method: To test for CETP-inhibitory activity, the substances are administered orally using a stomach tube to transgenic hCETP mice of our own breeding (Dinchuk et al. BBA (1995) 1295-301). To this end, male mice are randomly assigned to groups having an equal number of animals, as a rule n=3, one day before the start of the experiment. Before administration of the substance, blood is taken from each mouse by puncture of the retroorbital venous plexus for the determination of its basal CETP activity in the serum (T1). The test substance is then administered to the animals using the stomach tube. At specific times after administration of the test substance, blood is taken from the animals by puncture a second time (T2), as a rule 1, or 3 and 6 h after substance administration, but if appropriate this can also be carried out at another time.
In order to be able to assess the inhibitory activity of a substance, for each time, i.e. 1 or 3 or 6 h, a corresponding control group is employed whose animals only receive the formulating agent without substance. In the control animals, the second blood sampling per animal is carried out as in the substance-treated animals in order to be able to determine the change in the CETP activity without inhibitor over the corresponding experimental time interval (1, 3 or 6 h).
After termination of the clotting, the blood samples are centrifuged and the serum is removed by pipette.
For the determination of the CETP activity, the cholesteryl ester transport over 4 h is determined. To this end, as a rule 2 μl of serum are employed in the test batch and the test is carried out as described under “CETP fluorescence test”.
The differences in the cholesteryl ester transport (pM CE*/h (T2)−pM CE*/h (T1)) are calculated for each animal and averaged in the groups. A substance which at one of the times reduces the cholesteryl ester transport by >30% is regarded as active.

[4] = 1 h after administration, read-out: % inhibition at 30 mg/kg, 1 h
[5] = 3 h after administration, read-out: % inhibition at 30 mg/kg, 3 h
[6] = 6 h after administration, read-out: % inhibition at 30 mg/kg, 6 h

IC50 (CETP [1]) | IC50 (CETP [2]) | inhibition at 30 mg/kg [3, 4] | inhibition at 30 mg/kg [3, 5] | inhibition at 30 mg/kg [3, 6] | SMILES
80 nM |  | 69% | 46% | 28% | CC(C)c1nc2c(c(C3CCCCC3)c1[C@@H](O)c1ccc(C(F)(F)F)cc1)[C@@H](O)CC1(CCC1)C2 [Example 65, (5S)-2-Isopropyl-4-cyclohexyl-3-[(S)-hydroxy-(4-trifluoromethylphenyl)-methyl]-7-spirocyclobutyl-5,6,7,8-tetrahydroquinolin-5-ol]
60 nM | 15 nM |  |  |  | O[C@@H](c1ccc(C(F)(F)F)cc1)c1c(C2CCCC2)nc2c(c1C1CCCCC1)[C@@H](O)CC1(CCC1)C2 [Example 67, (5S)-2-Cyclopentyl-4-cyclohexyl-3-[(S)-hydroxy-(4-trifluoromethylphenyl)-methyl]-7-spirocyclobutyl-5,6,7,8-tetrahydroquinolin-5-ol]
800 nM |  |  |  |  | O[C@@H](c1ccc(C(F)(F)F)cc1)c1c(C2CCCC2)nc2c(c1C1CCC1)[C@@H](O)CC1(CCC1)C2 [Example 73, (5S)-2-Cyclopentyl-4-cyclobutyl-3-[(S)-hydroxy-(4-trifluoromethylphenyl)-methyl]-7-spirocyclobutyl-5,6,7,8-tetrahydroquinolin-5-ol]
70 nM |  |  |  |  | CC(C)c1c([C@@H](O)c2ccc(C(F)(F)F)cc2)c(C2CCCC2)nc2c1[C@@H](O)CC1(CCC1)C2 [Example 75, (5S)-2-Cyclopentyl-4-isopropyl-3-[(S)-hydroxy-(4-trifluoromethylphenyl)-methyl]-7-spirocyclobutyl-5,6,7,8-tetrahydroquinolin-5-ol]

More lines, now with the values behind:

SMILES | IC50 (CETP [1]) | IC50 (CETP [2]) | inhibition at 30 mg/kg [3, 4] | inhibition at 30 mg/kg [3, 5] | inhibition at 30 mg/kg [3, 6]
O[C@@H](c1ccc(C(F)(F)F)cc1)c1c(C2CCCC2)nc2c(c1-c1ccccc1)[C@@H](O)CC1(CCC1)C2 [Example 55, (5S)-2-Cyclopentyl-4-phenyl-3-[(S)-hydroxy-(4-trifluoromethylphenyl)-methyl]-7-spirocyclobutyl-5,6,7,8-tetrahydroquinolin-5-ol] | 65 nM |  |  |  | 
CC(C)c1nc2c(c(-c3ccsc3)c1[C@@H](O)c1ccc(C(F)(F)F)cc1)[C@@H](O)CC1(CCC1)C2 [Example 57, (5S)-2-Isopropyl-4-(3-thienyl)-3-[(S)-hydroxy-(4-trifluoromethylphenyl)-methyl]-7-spirocyclobutyl-5,6,7,8-tetrahydroquinolin-5-ol] | 45 nM | 40 nM |  |  | 
O[C@@H](c1ccc(C(F)(F)F)cc1)c1c(C2CCCC2)nc2c(c1-c1ccsc1)[C@@H](O)CC1(CCC1)C2 [Example 59, (5S)-2-Cyclopentyl-4-(3-thienyl)-3-[(S)-hydroxy-(4-trifluoromethylphenyl)-methyl]-7-spirocyclobutyl-5,6,7,8-tetrahydroquinolin-5-ol] | 60 nM | 35 nM |  |  | 
O[C@@H](c1ccc(C(F)(F)F)cc1)c1c(C2CCCC2)nc2c(c1-c1cccs1)[C@@H](O)CC1(CCC1)C2 [Example 63, (5S)-2-Cyclopentyl-4-(2-thienyl)-3-[(S)-hydroxy-(4-trifluoromethylphenyl)-methyl]-7-spirocyclobutyl-5,6,7,8-tetrahydroquinolin-5-ol] | 70 nM |  | 74% | 55% | 40%
CCCc1c([C@@H](O)c2ccc(C(F)(F)F)cc2)c(C2CCCC2)nc2c1[C@@H](O)CC1(CCC1)C2 [Example 77, (5S)-2-Cyclopentyl-4-(1-propyl)-3-[(S)-hydroxy-(4-trifluoromethylphenyl)-methyl]-7-spirocyclobutyl-5,6,7,8-tetrahydroquinolin-5-ol] | 2000 nM |  |  |  | 

— patent publication US20050043341A1, “3-'Hydroxy-(-4-trifluoromethylphenyl)-methyl-7-spirocyclobutyl-5,6,7 8-tetrahydroquinolin-5-ol derivatives and the use of the same as cholesterol ester transfer protein (cetp) inhibitors” (priority 2001, published 2005)
